Assay results taken from patent publication US11767310B2, “Nicotinamide RIPK1 inhibitors” (AbbVie Inc., priority 2021, dated 2023).
Like-named read-outs stand apart in the source and are kept apart here.

How the values were obtained:
Experiment in all cases: Kinase binding screen
Conditions in all cases: read-out: Percent Control at 100 nM Compound Concentration
[1] = biological target: ADCK3 (Homo sapiens (Human), UniProt Q8NI60)
[2] = biological target: AKT3 (Homo sapiens (Human), UniProt Q9Y243)
[3] = biological target: AURKB (Homo sapiens (Human), UniProt Q96GD4)
[4] = biological target: AURKC (Homo sapiens (Human), UniProt Q9UQB9)
[5] = biological target: CDK9 (Homo sapiens (Human), UniProt P50750)
[6] = biological target: CSF1R-autoinhibited (Homo sapiens (Human), UniProt P07333)
[7] = biological target: DCAMKL3 (Homo sapiens (Human), UniProt Q9C098)
[8] = biological target: EGFR(L747-S752del, P753S) (Homo sapiens (Human), UniProt P00533, DEL747-752/P753S)
[9] = biological target: FLT3(N841I) (Homo sapiens (Human), UniProt P36888, N841I)
[10] = biological target: KIT(D816V) (Homo sapiens (Human), UniProt P10721, D816V)
[11] = biological target: MAP3K1 (Homo sapiens (Human), UniProt Q13233)
[12] = biological target: MARK1 (Homo sapiens (Human), UniProt Q9P0L2)
[13] = biological target: MRCKA (Homo sapiens (Human), UniProt Q5VT25)
[14] = biological target: MUSK (Homo sapiens (Human), UniProt O15146)
[15] = biological target: NEK5 (Homo sapiens (Human), UniProt Q6P3R8)
[16] = biological target: PIM2 (Homo sapiens (Human), UniProt Q9P1W9)
[17] = biological target: PKAC-alpha (Homo sapiens (Human), UniProt P17612)
[18] = biological target: PKAC-beta (Homo sapiens (Human), UniProt P22694)
[19] = biological target: PLK1 (Homo sapiens (Human), UniProt P53350)
[20] = biological target: PRKD2 (Homo sapiens (Human), UniProt Q9BZL6)
[21] = biological target: PRKG1 (Homo sapiens (Human), UniProt Q13976)
[22] = biological target: RET(M918T) (Homo sapiens (Human), UniProt P07949, M918T)
[23] = biological target: ROCK1 (Homo sapiens (Human), UniProt Q13464)
[24] = biological target: RPS6KA4(Kin.Dom.1-N-terminal) (Homo sapiens (Human), UniProt O75676)
[25] = biological target: SNRK (Homo sapiens (Human), UniProt Q9NRH2)
[26] = biological target: SRMS (Homo sapiens (Human), UniProt Q9H3Y6)
[27] = biological target: ULK3 (Homo sapiens (Human), UniProt Q6PHR2)
[28] = biological target: ZAP70 (Homo sapiens (Human), UniProt P43403)

Chain of DCAMKL3 (Q9C098 whole entry, looked up): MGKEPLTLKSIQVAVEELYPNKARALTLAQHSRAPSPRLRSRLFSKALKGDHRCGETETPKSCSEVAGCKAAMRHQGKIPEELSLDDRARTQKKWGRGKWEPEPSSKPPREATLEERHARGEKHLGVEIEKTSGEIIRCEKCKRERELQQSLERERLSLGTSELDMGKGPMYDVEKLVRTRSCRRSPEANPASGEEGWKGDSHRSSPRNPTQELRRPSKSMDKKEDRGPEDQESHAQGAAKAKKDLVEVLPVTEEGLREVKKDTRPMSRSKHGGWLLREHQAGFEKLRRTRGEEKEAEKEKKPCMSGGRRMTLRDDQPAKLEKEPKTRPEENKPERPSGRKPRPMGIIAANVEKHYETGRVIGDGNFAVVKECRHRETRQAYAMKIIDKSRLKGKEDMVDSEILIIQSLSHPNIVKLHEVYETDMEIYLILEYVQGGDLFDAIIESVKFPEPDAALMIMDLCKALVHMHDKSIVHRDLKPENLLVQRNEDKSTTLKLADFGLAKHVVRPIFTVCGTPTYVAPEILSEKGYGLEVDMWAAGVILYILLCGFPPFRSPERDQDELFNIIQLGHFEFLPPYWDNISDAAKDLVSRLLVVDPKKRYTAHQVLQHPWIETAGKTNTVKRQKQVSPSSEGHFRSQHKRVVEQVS
Chain of AKT3 (Q9Y243 whole entry): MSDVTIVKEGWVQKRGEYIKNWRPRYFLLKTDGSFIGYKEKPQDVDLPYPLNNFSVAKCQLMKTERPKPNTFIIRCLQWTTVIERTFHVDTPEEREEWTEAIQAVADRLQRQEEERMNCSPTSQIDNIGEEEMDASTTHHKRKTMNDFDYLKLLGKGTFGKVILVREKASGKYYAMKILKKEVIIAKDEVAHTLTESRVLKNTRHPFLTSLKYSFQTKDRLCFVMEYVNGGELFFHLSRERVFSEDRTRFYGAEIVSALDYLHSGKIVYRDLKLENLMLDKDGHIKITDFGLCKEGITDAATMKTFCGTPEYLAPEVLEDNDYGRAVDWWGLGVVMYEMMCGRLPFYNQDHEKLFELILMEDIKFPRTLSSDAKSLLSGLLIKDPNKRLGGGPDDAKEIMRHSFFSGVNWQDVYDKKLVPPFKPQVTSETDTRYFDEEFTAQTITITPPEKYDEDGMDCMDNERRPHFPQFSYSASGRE
Chain of RET(M918T) (P07949 29-1114 M918T): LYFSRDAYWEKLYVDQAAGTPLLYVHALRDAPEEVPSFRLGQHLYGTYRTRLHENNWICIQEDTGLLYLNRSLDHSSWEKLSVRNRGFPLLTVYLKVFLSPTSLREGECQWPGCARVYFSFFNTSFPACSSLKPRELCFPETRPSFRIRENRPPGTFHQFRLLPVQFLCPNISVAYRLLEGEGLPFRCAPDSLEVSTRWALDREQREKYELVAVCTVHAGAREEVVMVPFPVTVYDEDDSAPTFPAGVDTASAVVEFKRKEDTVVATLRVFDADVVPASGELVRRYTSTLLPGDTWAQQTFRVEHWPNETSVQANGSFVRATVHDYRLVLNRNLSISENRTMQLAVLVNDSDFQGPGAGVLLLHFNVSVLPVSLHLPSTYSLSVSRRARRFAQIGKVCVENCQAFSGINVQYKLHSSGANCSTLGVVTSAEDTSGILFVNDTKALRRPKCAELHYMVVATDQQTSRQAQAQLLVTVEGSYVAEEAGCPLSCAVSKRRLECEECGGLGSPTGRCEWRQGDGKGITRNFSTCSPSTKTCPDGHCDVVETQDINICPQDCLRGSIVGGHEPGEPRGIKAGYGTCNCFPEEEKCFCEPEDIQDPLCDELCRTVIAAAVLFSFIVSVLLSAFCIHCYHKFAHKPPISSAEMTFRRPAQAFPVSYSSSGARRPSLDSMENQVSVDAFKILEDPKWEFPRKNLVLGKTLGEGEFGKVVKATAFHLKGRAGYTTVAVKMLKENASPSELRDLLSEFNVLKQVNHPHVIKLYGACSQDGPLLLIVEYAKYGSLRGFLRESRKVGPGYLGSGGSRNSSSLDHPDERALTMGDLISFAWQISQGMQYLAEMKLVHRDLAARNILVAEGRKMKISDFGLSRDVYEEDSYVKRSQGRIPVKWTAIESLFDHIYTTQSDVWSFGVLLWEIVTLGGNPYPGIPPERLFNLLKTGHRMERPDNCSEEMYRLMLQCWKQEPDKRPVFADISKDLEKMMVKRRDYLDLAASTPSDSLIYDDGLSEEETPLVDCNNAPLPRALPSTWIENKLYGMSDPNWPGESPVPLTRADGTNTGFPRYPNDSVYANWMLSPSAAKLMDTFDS
Chain of CSF1R-autoinhibited (P07333 539-972 limits assumed): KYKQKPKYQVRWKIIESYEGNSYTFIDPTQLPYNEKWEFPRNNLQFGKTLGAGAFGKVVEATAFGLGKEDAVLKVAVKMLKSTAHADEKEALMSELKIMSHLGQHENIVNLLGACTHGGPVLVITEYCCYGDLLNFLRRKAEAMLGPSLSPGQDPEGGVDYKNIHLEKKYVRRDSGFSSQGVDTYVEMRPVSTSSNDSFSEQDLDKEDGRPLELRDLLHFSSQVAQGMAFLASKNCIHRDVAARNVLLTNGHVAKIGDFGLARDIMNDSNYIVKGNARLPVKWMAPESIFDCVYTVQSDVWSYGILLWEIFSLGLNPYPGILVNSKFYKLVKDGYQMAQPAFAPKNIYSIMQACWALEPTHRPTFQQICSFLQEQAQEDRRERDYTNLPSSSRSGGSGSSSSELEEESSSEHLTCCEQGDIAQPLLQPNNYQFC
Chain of PLK1 (P53350 whole entry): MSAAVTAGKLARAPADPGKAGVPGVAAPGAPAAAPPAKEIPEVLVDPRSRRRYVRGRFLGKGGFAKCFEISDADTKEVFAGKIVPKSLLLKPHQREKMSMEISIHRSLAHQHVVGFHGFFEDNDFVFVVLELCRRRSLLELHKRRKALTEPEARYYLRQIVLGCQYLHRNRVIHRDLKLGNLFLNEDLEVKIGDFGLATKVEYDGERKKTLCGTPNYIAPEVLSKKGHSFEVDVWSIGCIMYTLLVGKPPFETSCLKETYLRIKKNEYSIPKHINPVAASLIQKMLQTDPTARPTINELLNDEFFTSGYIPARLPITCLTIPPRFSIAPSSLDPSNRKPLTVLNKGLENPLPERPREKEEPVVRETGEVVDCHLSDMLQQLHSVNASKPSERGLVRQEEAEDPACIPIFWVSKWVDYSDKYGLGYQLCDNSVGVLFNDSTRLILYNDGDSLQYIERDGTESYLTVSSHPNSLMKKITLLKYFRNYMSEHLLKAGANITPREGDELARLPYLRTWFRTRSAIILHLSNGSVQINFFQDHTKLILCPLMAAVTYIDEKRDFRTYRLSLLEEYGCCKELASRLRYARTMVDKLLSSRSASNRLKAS
Chain of CDK9 (P50750 whole entry): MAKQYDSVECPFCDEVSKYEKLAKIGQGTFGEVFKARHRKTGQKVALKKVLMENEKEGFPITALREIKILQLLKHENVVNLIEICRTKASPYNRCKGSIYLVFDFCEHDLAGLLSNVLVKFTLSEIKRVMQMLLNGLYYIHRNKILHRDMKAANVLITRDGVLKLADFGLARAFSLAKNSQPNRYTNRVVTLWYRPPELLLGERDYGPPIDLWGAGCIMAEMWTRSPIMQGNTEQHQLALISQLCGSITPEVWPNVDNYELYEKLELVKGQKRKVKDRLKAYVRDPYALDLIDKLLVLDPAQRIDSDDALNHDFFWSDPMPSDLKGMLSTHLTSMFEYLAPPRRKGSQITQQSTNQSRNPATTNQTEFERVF
Chain of ADCK3 (Q8NI60 163-647): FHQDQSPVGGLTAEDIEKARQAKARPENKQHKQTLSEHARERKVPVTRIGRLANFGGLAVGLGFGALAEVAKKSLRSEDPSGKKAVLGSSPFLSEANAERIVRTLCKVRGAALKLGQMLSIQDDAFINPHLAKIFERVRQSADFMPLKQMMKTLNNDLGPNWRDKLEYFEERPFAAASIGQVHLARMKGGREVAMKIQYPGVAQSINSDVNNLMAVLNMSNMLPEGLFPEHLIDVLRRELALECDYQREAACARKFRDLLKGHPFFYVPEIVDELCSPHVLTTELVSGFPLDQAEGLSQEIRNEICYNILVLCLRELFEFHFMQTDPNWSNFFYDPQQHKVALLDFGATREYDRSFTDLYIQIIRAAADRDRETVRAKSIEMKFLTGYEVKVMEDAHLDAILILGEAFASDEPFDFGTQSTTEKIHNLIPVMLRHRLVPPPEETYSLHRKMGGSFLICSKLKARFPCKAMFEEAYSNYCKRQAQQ
Chain of MUSK (O15146 24-869): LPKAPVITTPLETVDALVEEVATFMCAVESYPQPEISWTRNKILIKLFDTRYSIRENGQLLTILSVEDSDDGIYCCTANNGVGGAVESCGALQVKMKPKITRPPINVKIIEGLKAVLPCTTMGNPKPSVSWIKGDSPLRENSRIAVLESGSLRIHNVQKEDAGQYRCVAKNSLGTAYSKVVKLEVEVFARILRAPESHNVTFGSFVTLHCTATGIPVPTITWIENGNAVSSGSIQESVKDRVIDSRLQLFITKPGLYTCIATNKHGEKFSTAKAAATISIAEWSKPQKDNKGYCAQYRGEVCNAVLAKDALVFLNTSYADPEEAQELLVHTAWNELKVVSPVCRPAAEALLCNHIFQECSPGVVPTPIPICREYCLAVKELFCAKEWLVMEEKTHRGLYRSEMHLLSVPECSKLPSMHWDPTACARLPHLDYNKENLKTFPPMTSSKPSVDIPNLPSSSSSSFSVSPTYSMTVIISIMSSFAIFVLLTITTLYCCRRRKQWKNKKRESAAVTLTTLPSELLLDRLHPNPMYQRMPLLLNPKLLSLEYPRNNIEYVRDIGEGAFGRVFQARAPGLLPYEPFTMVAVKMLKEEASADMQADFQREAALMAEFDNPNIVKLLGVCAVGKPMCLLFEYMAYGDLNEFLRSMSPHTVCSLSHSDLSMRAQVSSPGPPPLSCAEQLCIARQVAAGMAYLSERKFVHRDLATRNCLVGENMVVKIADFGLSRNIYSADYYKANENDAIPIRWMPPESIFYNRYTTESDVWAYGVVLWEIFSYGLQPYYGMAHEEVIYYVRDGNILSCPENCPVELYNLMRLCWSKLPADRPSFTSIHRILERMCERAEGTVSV

CN(C[C@@H](O)Cc1ccccc1)C(=O)c1cncc(C#Cc2cnn(C(F)F)c2)c1 [Example 2, (S)-5-((1-(difluoromethyl)-1H-pyrazol-4-yl)ethynyl)-N-(2-hydroxy-3-phenylpropyl)-N-methylnicotinamide]
remaining activity at 0.1 µM ([1]; ADCK3): 100% | remaining activity at 0.1 µM ([2]; AKT3): 100% | remaining activity at 0.1 µM ([3]; AURKB): 100% | remaining activity at 0.1 µM ([4]; AURKC): 100% | remaining activity at 0.1 µM ([5]; CDK9): 100% | remaining activity at 0.1 µM ([6]; CSF1R-autoinhibited): 99% | remaining activity at 0.1 µM ([7]; DCAMKL3): 100% | remaining activity at 0.1 µM ([8]; EGFR(L747-S752del, P753S)): 100% | remaining activity at 0.1 µM ([9]; FLT3(N841I)): 99% | remaining activity at 0.1 µM ([10]; KIT(D816V)): 100% | remaining activity at 0.1 µM ([11]; MAP3K1): 100% | remaining activity at 0.1 µM ([12]; MARK1): 100% | remaining activity at 0.1 µM ([13]; MRCKA): 100% | remaining activity at 0.1 µM ([14]; MUSK): 100% | remaining activity at 0.1 µM ([15]; NEK5): 100% | remaining activity at 0.1 µM ([16]; PIM2): 95% | remaining activity at 0.1 µM ([17]; PKAC-alpha): 94% | remaining activity at 0.1 µM ([18]; PKAC-beta): 92% | remaining activity at 0.1 µM ([19]; PLK1): 87% | remaining activity at 0.1 µM ([20]; PRKD2): 79% | remaining activity at 0.1 µM ([21]; PRKG1): 92% | remaining activity at 0.1 µM ([22]; RET(M918T)): 100% | remaining activity at 0.1 µM ([23]; ROCK1): 100% | remaining activity at 0.1 µM ([24]; RPS6KA4(Kin.Dom.1-N-terminal)): 97% | remaining activity at 0.1 µM ([25]; SNRK): 100% | remaining activity at 0.1 µM ([26]; SRMS): 100% | remaining activity at 0.1 µM ([27]; ULK3): 97% | remaining activity at 0.1 µM ([28]; ZAP70): 98%

CN(C[C@H](Cc1ccccc1)OP(=O)(O)O)C(=O)c1cncc(C#Cc2cnn(C(F)F)c2)c1 [Example 19, (S)-1-(5-((1-(difluoromethyl)-1H-pyrazol-4-yl)ethynyl)-N-methylnicotinamido)-3-phenylpropan-2-yl dihydrogen phosphate]
remaining activity at 0.1 µM [1]: 100% | remaining activity at 0.1 µM [2]: 100% | remaining activity at 0.1 µM [3]: 90% | remaining activity at 0.1 µM [4]: 100% | remaining activity at 0.1 µM [5]: 100% | remaining activity at 0.1 µM [6]: 99% | remaining activity at 0.1 µM [7]: 100% | remaining activity at 0.1 µM [8]: 97% | remaining activity at 0.1 µM [9]: 96% | remaining activity at 0.1 µM [10]: 100% | remaining activity at 0.1 µM [11]: 100% | remaining activity at 0.1 µM [12]: 96% | remaining activity at 0.1 µM [13]: 100% | remaining activity at 0.1 µM [14]: 100% | remaining activity at 0.1 µM [15]: 94% | remaining activity at 0.1 µM [16]: 100% | remaining activity at 0.1 µM [17]: 94% | remaining activity at 0.1 µM [18]: 100% | remaining activity at 0.1 µM [19]: 87% | remaining activity at 0.1 µM [20]: 100% | remaining activity at 0.1 µM [21]: 100% | remaining activity at 0.1 µM [22]: 100% | remaining activity at 0.1 µM [23]: 100% | remaining activity at 0.1 µM [24]: 100% | remaining activity at 0.1 µM [25]: 100% | remaining activity at 0.1 µM [26]: 96% | remaining activity at 0.1 µM [27]: 96% | remaining activity at 0.1 µM [28]: 98%
